Molecules are shown by their SMILES. Several values for one entry are separate records, joined by “and”; a condition that tells them apart may be missing. Equal values may be shown once.

The source of these data is BindingDB's records for doi:10.1021/jm0303857 (Johnson & Johnson Pharmaceutical, 2005).

One assay concerns the target Prothrombin (Homo sapiens, UniProt P00734). Briefly: Enzyme Inhibition Assay. On the procedure: Thrombin-catalyzed hydrolysis rates were measured spectrophotometrically using human alpha-thrombin, a chromogenic substrate in aqueous buffer, and a microplate reader. […] The IC50 values were determined by fixing the enzyme and substrate concentrations and varying the inhibitor concentration. Ki values were determined by fixing the enzyme and inhibitor concentrations and varying the substrate concentration. Michaelis-Menton kinetics was applied to the initial reaction slopes using the program K.Cat (Bio Metallics Inc.).

A further assay concerns the target T1, Serine protease 1 (Bos taurus, UniProt P00760).
T1 sequence (P00760 whole entry): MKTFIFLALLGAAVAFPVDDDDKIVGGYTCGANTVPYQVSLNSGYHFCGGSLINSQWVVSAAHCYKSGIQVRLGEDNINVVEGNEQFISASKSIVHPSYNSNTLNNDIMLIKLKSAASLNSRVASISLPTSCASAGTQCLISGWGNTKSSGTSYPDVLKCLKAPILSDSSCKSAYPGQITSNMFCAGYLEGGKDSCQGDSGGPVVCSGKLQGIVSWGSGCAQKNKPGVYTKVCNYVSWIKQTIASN
Briefly: Enzyme Inhibition Assay.

What is called IC50 is the point on the concentration scale where inhibition reaches its midpoint. On Prothrombin, `CN[C@H](Cc1ccccc1)C(=O)N1CCC[C@H]1C(=O)N[C@@H](CCCNC(=N)N)C(=O)c1cc2ccccc2s1` came in with an IC50 of 13000 nM. The term Ki denotes a dissociation constant, usually derived from enzyme kinetics or from competition with a known ligand. Regarding `CN[C@H](Cc1ccccc1)C(=O)N1CCC[C@H]1C(=O)N[C@@H](CCCN=C(N)N)C(=O)c1nc2ccc(C(=O)O)cc2s1` [2-[(2S)-5-carbamimidamido-2-{[(2S)-1-[(2R)-2-(methylamino)-3-phenylpropanoyl]pyrrolidin-2-yl]formamido}pentanoyl]-1,3-benzothiazole-6-carboxylic acid], on Serine protease 1, the affinity, expressed as Ki, was 2.7 nM. Consider `N=C(N)NCCCCC(=O)c1nc2ccccc2s1` [3-[5-(1,3-benzothiazol-2-yl)-5-oxopentyl]guanidine], for which the IC50 against Prothrombin was above 300000 nM. Further, the Ki at Serine protease 1 was above 100000 nM. On Prothrombin (pH 7.4, 37 °C), `NC(N)=NCCCC(NC(=O)[C@@H]1CCCN1C(=O)C(N)(c1ccccc1)c1ccccc1)C(=O)c1nc2ccccc2s1` (stereo partly drawn) [(2S)-1-(2-amino-2,2-diphenylacetyl)-N-[1-(1,3-benzothiazol-2-yl)-5-carbamimidamido-1-oxopentan-2-yl]pyrrolidine-2-carboxamide] returned an IC50 of 15 nM and a Ki of 2.1 nM. Moreover, affinity on Serine protease 1 was put at a Ki of 1.8 nM.

Regarding `CC(N)(Cc1ccccc1)C(=O)N1CCC[C@H]1C(=O)NC(CCCN=C(N)N)C(=O)c1nc2ccccc2s1` (stereo partly drawn) [(2S)-1-(2-amino-2-benzylpropanoyl)-N-[1-(1,3-benzothiazol-2-yl)-5-carbamimidamido-1-oxopentan-2-yl]pyrrolidine-2-carboxamide], affinity at Serine protease 1 was put at a Ki of 3.9 nM. Molecule `NC(N)=NCCCC(NC(=O)[C@@H]1CCCN1C(=O)[C@@H](N)Cc1ccccc1)C(=O)c1nc2ccccc2s1` (stereo partly drawn) [(2S)-1-[(2S)-2-amino-3-phenylpropanoyl]-N-[1-(1,3-benzothiazol-2-yl)-5-carbamimidamido-1-oxopentan-2-yl]pyrrolidine-2-carboxamide] yielded an IC50 on Serine protease 1 of 5.8 nM. Turning to `CN[C@H](Cc1ccccc1)C(=O)N1CCC[C@H]1C(=O)NC(CCCN=C(N)N)C(O)c1nc2ccccc2s1` (stereo partly drawn) [(2S)-N-[1-(1,3-benzothiazol-2-yl)-5-carbamimidamido-1-hydroxypentan-2-yl]-1-[(2R)-2-(methylamino)-3-phenylpropanoyl]pyrrolidine-2-carboxamide], the half-inhibitory concentration (IC50) against Prothrombin is 48000 nM and 17000 nM. Also, the inhibition constant Ki at Prothrombin was 5300 nM and 1600 nM; on Serine protease 1 it was 180000 nM and 250000 nM.

Regarding `CN[C@@H](C(=O)N1CCC[C@H]1C(=O)NC(CCCN=C(N)N)C(=O)c1nc2ccccc2s1)c1ccccc1` (stereo partly drawn) [(2S)-N-[1-(1,3-benzothiazol-2-yl)-5-carbamimidamido-1-oxopentan-2-yl]-1-[(2R)-2-(methylamino)-2-phenylacetyl]pyrrolidine-2-carboxamide], inhibition on Serine protease 1 was half-maximal at 32 nM (IC50).

In the case of `CN[C@H](Cc1ccccc1)C(=O)N1CCC[C@H]1C(=O)NC(CCCN=C(N)N)C(=O)c1nc2ccccc2s1` (stereo partly drawn) [(2S)-N-[1-(1,3-benzothiazol-2-yl)-5-carbamimidamido-1-oxopentan-2-yl]-1-[(2R)-2-(methylamino)-3-phenylpropanoyl]pyrrolidine-2-carboxamide], on Prothrombin (pH 7.4, 37 °C), the IC50 was 29 nM and the Ki is 0.2 nM. On Serine protease 1, `CN[C@H](Cc1ccc(F)cc1)C(=O)N1CCC[C@H]1C(=O)NC(CCCN=C(N)N)C(=O)c1nc2ccccc2s1` (stereo partly drawn) [(2S)-N-[1-(1,3-benzothiazol-2-yl)-5-carbamimidamido-1-oxopentan-2-yl]-1-[(2R)-3-(4-fluorophenyl)-2-(methylamino)propanoyl]pyrrolidine-2-carboxamide] gave an inhibition constant (Ki) of 3.3 nM. At Prothrombin, `NC(N)=NCCCC(NC(=O)[C@@H]1CCCN1C(=O)C1(O)c2ccccc2-c2ccccc21)C(=O)c1nc2ccccc2s1` (stereo partly drawn) [(2S)-N-[1-(1,3-benzothiazol-2-yl)-5-carbamimidamido-1-oxopentan-2-yl]-1-[(9-hydroxy-9H-fluoren-9-yl)carbonyl]pyrrolidine-2-carboxamide] had an IC50 of 95 nM and an inhibitory constant (Ki) of 3.1 nM. Moreover, at Serine protease 1, the Ki is 2 nM. At Prothrombin, `CN[C@H](Cc1ccccc1)C(=O)N1CCC[C@H]1C(=O)NC(CCCN=C(N)N)C(=O)c1nccn1C` (stereo partly drawn) [(2S)-N-[5-carbamimidamido-1-(1-methyl-1H-imidazol-2-yl)-1-oxopentan-2-yl]-1-[(2R)-2-(methylamino)-3-phenylpropanoyl]pyrrolidine-2-carboxamide] displayed an IC50 of 1500 nM. Moreover, the Ki at Prothrombin worked out at 200 nM; at Serine protease 1 it was 5800 nM. `CN[C@H](Cc1ccccc1)C(=O)N1CCC[C@H]1C(=O)NC(CCCN=C(N)N)C(=O)c1nccs1` (stereo partly drawn) [(2S)-N-[5-carbamimidamido-1-oxo-1-(1,3-thiazol-2-yl)pentan-2-yl]-1-[(2R)-2-(methylamino)-3-phenylpropanoyl]pyrrolidine-2-carboxamide] displayed an IC50 at Prothrombin of 19 nM. Also, the Ki turned out to be 2.1 nM at Prothrombin and 1.2 nM at Serine protease 1. In turn, `CN[C@H](Cc1ccccc1)C(=O)N1CCC[C@H]1C(=O)NC(CCCN=C(N)N)C(=O)c1ccccn1` (stereo partly drawn) [(2S)-N-[5-carbamimidamido-1-oxo-1-(pyridin-2-yl)pentan-2-yl]-1-[(2R)-2-(methylamino)-3-phenylpropanoyl]pyrrolidine-2-carboxamide] yielded an IC50 at Prothrombin of 930 nM. The figures for the Ki at Prothrombin and on Serine protease 1 were 85 nM and 73 nM, respectively.

On Prothrombin, `CN[C@H](Cc1ccccc1)C(=O)N1CCC[C@H]1C(=O)N[C@@H](C(=O)c1nc2ccccc2s1)C1CCC(CN)CC1` (stereo partly drawn) [(2S)-N-[(1R)-1-[4-(aminomethyl)cyclohexyl]-2-(1,3-benzothiazol-2-yl)-2-oxoethyl]-1-[(2R)-2-(methylamino)-3-phenylpropanoyl]pyrrolidine-2-carboxamide] returned a concentration for half-maximal inhibition (IC50) above 1000 nM. On Prothrombin, `CNCCCC[C@@H](NC(=O)[C@@H]1CCCN1C(=O)[C@@H](Cc1ccccc1)NC)C(=O)c1nc2ccccc2s1` [(2S)-N-[(2R)-1-(1,3-benzothiazol-2-yl)-6-(methylamino)-1-oxohexan-2-yl]-1-[(2R)-2-(methylamino)-3-phenylpropanoyl]pyrrolidine-2-carboxamide] returned an IC50 above 1000 nM. With `CN[C@H](Cc1ccccc1)C(=O)N1CCC[C@H]1C(=O)N[C@@H](Cc1ccccc1)C(=O)c1nc2ccccc2s1` [(2S)-N-[(2S)-1-(1,3-benzothiazol-2-yl)-1-oxo-3-phenylpropan-2-yl]-1-[(2R)-2-(methylamino)-3-phenylpropanoyl]pyrrolidine-2-carboxamide], the IC50 at Prothrombin was above 1000 nM.

Turning to `CN[C@H](Cc1ccccc1)C(=O)N1CCC[C@H]1C(=O)N[C@@H](Cc1ccc(C(=N)N)cc1)C(=O)c1nc2ccccc2s1` [(2S)-N-[(2S)-1-(1,3-benzothiazol-2-yl)-3-(4-carbamimidoylphenyl)-1-oxopropan-2-yl]-1-[(2R)-2-(methylamino)-3-phenylpropanoyl]pyrrolidine-2-carboxamide], the IC50 against Prothrombin was above 1000 nM. `CN[C@@H](C(=O)N1CCC[C@H]1C(=O)N[C@@H](CCCN=C(N)N)C(=O)c1nc2ccccc2s1)C(c1ccccc1)c1ccccc1` [(2S)-N-[(2S)-1-(1,3-benzothiazol-2-yl)-5-carbamimidamido-1-oxopentan-2-yl]-1-[(2R)-2-(methylamino)-3,3-diphenylpropanoyl]pyrrolidine-2-carboxamide] registered an IC50 against Serine protease 1 of 30 nM.

Regarding `CNCCCC[C@H](NC(=O)[C@@H]1CCCN1C(=O)[C@@H](Cc1ccccc1)NC)C(=O)c1nc2ccccc2s1` [(2S)-N-[(2S)-1-(1,3-benzothiazol-2-yl)-6-(methylamino)-1-oxohexan-2-yl]-1-[(2R)-2-(methylamino)-3-phenylpropanoyl]pyrrolidine-2-carboxamide], the IC50 against Prothrombin was above 1000 nM.
